Some test systems named below: HCT-116 colon; UO-31 renal; A549 NSCLC; M14 melanoma; SK-MEL-28 melanoma; IGROV1 ovarian; SF-539 CNS; MDA-MB-231 breast; NCI-H226 lung; LOX IMVI melanoma; UACC-62 melanoma; SR leukemia; PC-3 prostate; K-562 leukemia; SNB-19 CNS; SW-620 colon; OVCAR-5 ovarian; SF-295 CNS.
Holding throughout (experiment): NCI tumour cell line growth inhibition, 48 h

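Test compounds were applied to cells in 96-well plates for 48 hours at 5 doses. The concentration for full growth arrest is given as TGI.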

Turning to `COC(=O)c1ccc(NCC2=CC(=O)C=CC2=O)cc1`, the TGI in the assay on HCT-116 colon is 30.4 µM; with UO-31 renal, 19.5 µM; in the assay on A549 NSCLC, 41.8 µM; in the assay on M14 melanoma, 15.8 µM; in the assay on SK-MEL-28 melanoma, 30.2 µM; in the assay with IGROV1 ovarian, 34.1 µM. For the same molecule, the TGI in the assay on SF-539 CNS is 24.5 µM; in the assay on MDA-MB-231 breast, 30.7 µM; with NCI-H226 lung it was 37.2 µM; in the assay on LOX IMVI melanoma it was 17.8 µM; with UACC-62 melanoma, 29 µM; in the assay with SR leukemia it was 61 µM. The TGI was 37 µM in the assay on PC-3 prostate; 6.95 µM with K-562 leukemia; 28.2 µM in the assay with SNB-19 CNS; 25.9 µM in the assay on SW-620 colon; 32.3 µM in the assay on OVCAR-5 ovarian.
Take `Cn1c(=O)cc(N2CCCC2)[nH]c1=O`: the TGI in the assay on HCT-116 colon, in the assay on A549 NSCLC, with M14 melanoma, in the assay with SK-MEL-28 melanoma, in the assay with IGROV1 ovarian and with SF-539 CNS was more than 100 µM each time. In addition, the TGI in the assay with MDA-MB-231 breast, in the assay on NCI-H226 lung, with LOX IMVI melanoma, in the assay with SF-295 CNS, in the assay on SR leukemia and with PC-3 prostate was more than 100 µM throughout. In addition, the TGI with K-562 leukemia, in the assay with SNB-19 CNS, in the assay on SW-620 colon and in the assay on OVCAR-5 ovarian was more than 100 µM throughout.
Take `CCOP(=O)(OCC)C(F)(F)Cc1cnc(C)c2c1COC(C)(C)O2`: the TGI in the assay with HCT-116 colon, in the assay with UO-31 renal, in the assay with A549 NSCLC, in the assay with M14 melanoma, in the assay on SK-MEL-28 melanoma and in the assay with IGROV1 ovarian was more than 10 µM in each case. For the same molecule, the TGI with SF-539 CNS, in the assay with MDA-MB-231 breast, in the assay on NCI-H226 lung, in the assay with UACC-62 melanoma, in the assay on SF-295 CNS and in the assay with SR leukemia was more than 10 µM each time. The TGI in the assay with PC-3 prostate, with K-562 leukemia, in the assay on SNB-19 CNS, with SW-620 colon and with OVCAR-5 ovarian was more than 10 µM each time.
As for `COC(=O)[C@@H]1OC(C)(c2ccccc2)O[C@H]1C(=O)OC`, the TGI in the assay on UO-31 renal, with A549 NSCLC, in the assay on M14 melanoma, in the assay on SK-MEL-28 melanoma, in the assay on IGROV1 ovarian and in the assay with SF-539 CNS was more than 100 µM in each case. Also, the TGI in the assay with MDA-MB-231 breast, in the assay on NCI-H226 lung, in the assay with LOX IMVI melanoma, in the assay on UACC-62 melanoma, in the assay with SF-295 CNS and in the assay with SR leukemia was more than 100 µM in each case. The TGI in the assay with PC-3 prostate, with K-562 leukemia, with SNB-19 CNS, with SW-620 colon and in the assay with OVCAR-5 ovarian was more than 100 µM in each case.
With `O=C(c1cccs1)N(Cc1cccnc1)C(=S)N(Cc1cccnc1)C(=O)c1cccs1`, the TGI in the assay with HCT-116 colon was more than 100 µM; in the assay on UO-31 renal, more than 100 µM; with A549 NSCLC, more than 100 µM; in the assay with M14 melanoma it was more than 100 µM; in the assay on SK-MEL-28 melanoma, more than 100 µM; in the assay on SF-539 CNS, 88.7 µM. The TGI in the assay with MDA-MB-231 breast, in the assay on NCI-H226 lung, in the assay on LOX IMVI melanoma, with UACC-62 melanoma, in the assay with SF-295 CNS and with SR leukemia was more than 100 µM throughout. Moreover, the TGI in the assay with PC-3 prostate, in the assay on K-562 leukemia, in the assay with SNB-19 CNS, in the assay on SW-620 colon and with OVCAR-5 ovarian was more than 100 µM in each case.
Consider `CCN(CC)C(=S)SS(=O)(=O)c1ccc(NC(C)=O)cc1`, for which the TGI in the assay on HCT-116 colon was 31.1 µM; with UO-31 renal, 42.6 µM; in the assay with A549 NSCLC, 43.4 µM; in the assay with M14 melanoma, 33 µM; in the assay with SK-MEL-28 melanoma, 39.2 µM; with MDA-MB-231 breast, 36.4 µM. The TGI in the assay on NCI-H226 lung is more than 100 µM; in the assay on LOX IMVI melanoma, 31.8 µM; in the assay with UACC-62 melanoma it was more than 91.3 µM; with SF-295 CNS it was more than 100 µM; in the assay with SR leukemia, more than 51.6 µM; with PC-3 prostate it was more than 100 µM. The TGI in the assay on K-562 leukemia is more than 100 µM; in the assay with SNB-19 CNS, more than 100 µM; in the assay on SW-620 colon, 32 µM; in the assay with OVCAR-5 ovarian, 60.5 µM.
On to `O=C(CC(=O)N1N=C(N(c2ccccc2)c2ccccc2)CC1c1ccccc1)Nc1ccccc1` (centres undefined), for which the TGI in the assay with HCT-116 colon, in the assay on UO-31 renal, in the assay on A549 NSCLC, with M14 melanoma, in the assay with SK-MEL-28 melanoma and in the assay with IGROV1 ovarian was more than 100 µM each time. Further, the TGI in the assay with SF-539 CNS, with MDA-MB-231 breast, with NCI-H226 lung, with UACC-62 melanoma, in the assay on SF-295 CNS and with SR leukemia was more than 100 µM in each case. In addition, the TGI in the assay with PC-3 prostate, in the assay on K-562 leukemia, in the assay with SNB-19 CNS, in the assay with SW-620 colon and with OVCAR-5 ovarian was more than 100 µM each time.
On to `CCOC(=O)c1ccc(Nc2nc3cc(C(F)(F)F)ccc3nc2C(=O)OCC)cc1`, for which the TGI in the assay on HCT-116 colon, with UO-31 renal, in the assay on A549 NSCLC, in the assay on M14 melanoma, in the assay with SK-MEL-28 melanoma and with IGROV1 ovarian was more than 100 µM throughout. In addition, the TGI in the assay with SF-539 CNS, in the assay with MDA-MB-231 breast, with LOX IMVI melanoma, with UACC-62 melanoma, with SF-295 CNS and in the assay with SR leukemia was more than 100 µM throughout. Further, the TGI was more than 100 µM in the assay with PC-3 prostate; more than 100 µM in the assay with K-562 leukemia; 62.2 µM in the assay on SNB-19 CNS; more than 100 µM in the assay on SW-620 colon; more than 100 µM with OVCAR-5 ovarian.
